Results published in patent US5045566A, “Novel imidate insecticides” (ICI Americas Inc., priority 1989, dated 1991).

Experiments:
Type in all cases: in vivo
[1] = tested on: Aster Leafhopper [Macrosteles fascifrens (Stal)]; test: Aster leafhopper on dipped oat seedlings (LH), 48 hours; conditions: percent in solution, adults/nymphs
Summary of the method: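 Three ~10 cm oat seedlings per cup were dipped 2-3 seconds in 50-50 acetone-water compound solutions, dried, and caged with ten adult/nymph leafhoppers. Mortality was counted after 48 hours at concentrations from 0.05% downward. LC50, as percent compound in solution, came from dosage-mortality curves.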

[2] = tested on: Housefly [Musca domestica]; test: Housefly contact mortality in dishes (HF), 48 hours; conditions: μg of test compound per 25 female flies
Summary of the method: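 Acetone solutions (with 0.01% peanut oil) dried onto dish bottoms, then 25 female flies, 1-2 days old, caged over the residue with sugar water. Mortality scored at 48 hours; LC50 from dosage-mortality curves, in μg per 25 female flies, top level 100 μg.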

[3] = tested on: Black Bean Aphid [Aphis fabae (Scop.)]; test: Black bean aphid spray test on nasturtium (BBA), 48 hours; conditions: percent of test compound in sprayed solution
Summary of the method: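 LC50, given as percent test compound in the sprayed liquid, was calculated from dosage-mortality curves using concentrations from 0.05% downward. Sprays in 50:50 acetone-water went to runoff on ~5 cm nasturtiums carrying 25-50 aphids of mixed ages, one day after infestation. Deaths were counted 48 h later under greenhouse conditions.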

[4] = tested on: Cabbage Looper [Trichoplusia ni (Hubner)]; test: Cabbage looper leaf dip (CL), 3-5 days; conditions: percent in solution, second-instar larvae
Summary of the method: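 LC50, as percent test compound in solution, derived from dosage-mortality curves; concentrations started at 0.1% and went lower. Five second-instar larvae per dish fed on acetone-water-dipped, dried squash cotyledons in a humid chamber. Deaths recorded 3-5 days post-infestation.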

[5] = tested on: Maize weevil [Sitophilus zeamais (Motschulsky)]; test: Maize weevil on dipped corn seeds (MW), 48 hours; conditions: percent in solution, adult weevils
Summary of the method: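 LC50, given as percent of compound in dipping solution, comes from dosage-mortality curves over concentrations descending from 0.01%. Four corn seeds soaked 2-3 s in 50:50 acetone:water solution were dried and held with 10 adult weevils, about 25° C, mortality read after 48 h.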

[6] = tested on: Tobacco Budworm [Heliothis virescens (Fabricius)] eggs; test: Tobacco budworm eggs (TBW-E); conditions: percent in solution; 2-day old eggs
Summary of the method: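 LC50 is given as percent compound in the dipping solution, fitted from dosage-mortality curves. Two-day-old eggs on paper towel were dipped in acetone solutions (top concentration 0.1%), kept at 78° F on rearing medium, and scored after control hatch and larval feeding.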

[7] = tested on: Tobacco Budworm [Heliothis virescens (Fabricius)] larvae; test: Tobacco budworm larvae, contact (TBW-C), 5 days; conditions: percent in solution, second-instar larvae
Method: The compounds in Tables 1 and 2 above were tested for insecticidal activity using the following testing procedures. LC50 values, based on the results of these tests and calculated according to dosage-mortality curves, are expressed in Table 3.
Tobacco Budworm [Heliothis virescens (Fabricius)]:
(a) Contact: Test compounds were diluted in a 50-50 acetone-water solution. Cotton (Gossypium sp.) cotyledons were immersed in the test solutions for 2-3 seconds and placed on a wire screen to dry. The dried leaves were placed in petri dishes containing a moistened piece of filter paper and infested with 5 second-instar tobacco budworm larvae. The dishes were placed in a high humidity chamber for 5 days, and percent mortality of the larvae recorded. Test concentrations ranged from 0.1% downward. The LC-50 values are expressed below in Table 3 under the heading "TBW-C" in terms of percent of the test compound in the solution.

CC(C)(C)C(=Nc1ccc(Cl)cc1)OCc1cccc(Oc2ccccc2)c1 [Compound 30]
LC50 LH [1]: > 0.05%
LC50 HF [2]: > 100 µg
LC50 BBA [3]: > 0.05%
LC50 CL [4]: 0.003%
LC50 MW [5]: > 0.01%
LC50 TBW E (eggs) [6]: > 0.1%
LC50 TBW C (contact) [7]: 0.01%

CC(C)C(=Nc1ccc(Cl)c(Cl)c1)OCc1cccc(Oc2ccc(F)cc2)c1 [Compound 37]
LC50 LH [1]: 0.002%
LC50 HF [2]: 21 µg
LC50 CL [4]: 0.0004%
LC50 MW [5]: 0.009%
LC50 TBW E (eggs) [6]: 0.014%
LC50 TBW C (contact) [7]: 0.0005%

ClC(Cl)C(=Nc1ccccc1)OCc1cccc(Oc2ccccc2)c1 [Compound 41]
LC50 HF [2]: 4.5 µg
LC50 BBA [3]: 0.001%
LC50 CL [4]: 0.015%
LC50 TBW E (eggs) [6]: 0.04%
LC50 TBW C (contact) [7]: 0.0035%

CC(C)C(=Nc1c(F)c(F)c(F)c(F)c1F)OCc1cccc(Oc2ccccc2)c1 [Compound 51]
LC50 LH [1]: 0.001%
LC50 HF [2]: 25 µg
LC50 BBA [3]: 0.01%
LC50 CL [4]: 0.001%
LC50 TBW E (eggs) [6]: 0.067%
LC50 TBW C (contact) [7]: 0.0025%

CC(C)C(=Nc1ccc(F)c(F)c1)OCc1cccc(Oc2ccc(F)cc2)c1 [Compound 60, N-(3,4-Difluorophenyl)-O-(4'-fluoro-3-phenoxybenzyl)isobutyrylimidate]
LC50 LH [1]: 0.002%
LC50 HF [2]: 8 µg
LC50 CL [4]: 0.001%
LC50 MW [5]: 0.0075%
LC50 TBW E (eggs) [6]: 0.017%
LC50 TBW C (contact) [7]: 0.0009%

Cc1c(F)cccc1N=C(OCc1cccc(Oc2ccccc2)c1)C(C)C [Compound 73]
LC50 HF [2]: 25 µg
LC50 BBA [3]: 0.003%
LC50 CL [4]: 0.004%
LC50 TBW E (eggs) [6]: 0.025%
LC50 TBW C (contact) [7]: 0.005%

Cc1ccc(F)cc1N=C(OCc1cccc(Oc2ccccc2)c1)C(C)C [Compound 74]
LC50 HF [2]: 25 µg
LC50 BBA [3]: 0.001%
LC50 CL [4]: 0.005%
LC50 TBW E (eggs) [6]: 0.025%
LC50 TBW C (contact) [7]: 0.0025%

Cc1ccc(N=C(OCc2cccc(Oc3ccccc3)c2)C(C)C)cc1F [Compound 75]
LC50 LH [1]: 0.0008%
LC50 HF [2]: 5 µg
LC50 BBA [3]: 0.0006%
LC50 CL [4]: 0.0025%
LC50 TBW E (eggs) [6]: 0.01%
LC50 TBW C (contact) [7]: 0.0075%

COc1ccc(N=C(OCc2cccc(Oc3ccccc3)c2)C(C)C)cc1Cl [Compound 95]
LC50 HF [2]: 10 µg
LC50 BBA [3]: 0.001%
LC50 CL [4]: 0.0025%
LC50 TBW E (eggs) [6]: 0.025%
LC50 TBW C (contact) [7]: 0.004%

Cc1cc(Cl)ccc1N=C(OCc1cccc(Oc2ccccc2)c1)C(C)C [Compound 96]
LC50 HF [2]: 35 µg
LC50 BBA [3]: 0.002%
LC50 CL [4]: 0.003%
LC50 TBW E (eggs) [6]: 0.025%
LC50 TBW C (contact) [7]: 0.0025%

CC(C)C(=Nc1ccc(F)c(C(F)(F)F)c1)OCc1cccc(Oc2ccc(F)cc2)c1 [Compound 120]
LC50 LH [1]: 0.0003%
LC50 HF [2]: 14 µg
LC50 BBA [3]: 0.0006%
LC50 CL [4]: 0.00015%
LC50 MW [5]: > 0.01%
LC50 TBW E (eggs) [6]: 0.04%
LC50 TBW C (contact) [7]: 0.0025%

CCOc1ccc(N=C(OCc2cccc(Oc3ccccc3)c2)C(Cl)Cl)cc1 [Compound 138]
LC50 HF [2]: 19 µg
LC50 BBA [3]: 0.003%
LC50 CL [4]: 0.005%
LC50 MW [5]: > 0.01%
LC50 TBW E (eggs) [6]: 0.08%
LC50 TBW C (contact) [7]: 0.015%

CC(C)(C)c1ccc(N=C(OCc2cccc(Oc3ccccc3)c2)C(Cl)Cl)cc1 [Compound 140]
LC50 HF [2]: > 100 µg
LC50 BBA [3]: 0.05%
LC50 CL [4]: < 0.1%
LC50 TBW E (eggs) [6]: > 0.1%
LC50 TBW C (contact) [7]: > 0.1%

COc1ccccc1N=C(OCc1cccc(Oc2ccccc2)c1)C(C)C [Compound 145]
LC50 LH [1]: > 0.05%
LC50 HF [2]: > 100 µg
LC50 BBA [3]: > 0.05%
LC50 CL [4]: 0.05%
LC50 TBW E (eggs) [6]: > 0.1%
LC50 TBW C (contact) [7]: 0.05%
